# Results reported in patent US9034891B2, “Bicyclic heterocyclic spiro compounds” (ISRAEL INSTITUTE FOR BIOLOGICAL RESEARCH, priority 2009, dated 2015).
# Like-named read-outs stand apart in the source and are kept apart here.
# How the values were obtained:
# sigma 1 receptors = molecular target: T1, sigma 1 receptors (Cavia porcellus, UniProt Q60492); assay: Displacement of tritiated-pentazocine from guinea-pig cerebral cortex; format: binding
# T1 construct: displacement assay of tritiated-pentazocine from guinea-pig cerebral cortex; from tissue; host or cells: guinea-pig cerebral cortex
# T1 sequence (Q60492 whole entry): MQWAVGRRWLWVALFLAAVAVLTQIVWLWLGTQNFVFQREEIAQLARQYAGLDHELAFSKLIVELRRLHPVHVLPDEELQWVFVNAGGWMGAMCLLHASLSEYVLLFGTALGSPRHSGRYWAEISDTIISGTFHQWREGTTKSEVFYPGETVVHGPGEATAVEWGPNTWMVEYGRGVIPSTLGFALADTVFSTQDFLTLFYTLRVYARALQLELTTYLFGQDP
# Description: It was specifically designed to provide information not only on potential limitations of drug candidates, but also for off-target activity identification. […] In a further extension of this study, functional studies were done on most of these receptors.
# M2-M5 mAChR subtypes = assay: Intracellular Ca2+ mobilization in cells stably transfected with M2-M5 mAChR subtypes; format: cell-based
# Description: To evaluate selectivity for a subtype of mAChR, in particular the M1 mAChR vs. M3 and MS mAChR, the assays were calibrated using ligands that have a combined activity, e.g. M1 agonistic and M3 antagonistic or M1 agonistic and MS antagonistic profiles, respectively. This can eliminate effects due to different receptor reserves in cell-based assays.
# ERK 1/2 phosphorylation = assay: Phospho-p44/42 MAPK (ERK 1/2) detection in PC12M1 cells; format: cell-based, rat; details: 3 hours
# M1 mAChR = molecular target: T2, M1 mAChR (Rattus norvegicus, UniProt P08482); details: [3H]PZ, rat cortical membranes
# T2 sequence (P08482 1-460): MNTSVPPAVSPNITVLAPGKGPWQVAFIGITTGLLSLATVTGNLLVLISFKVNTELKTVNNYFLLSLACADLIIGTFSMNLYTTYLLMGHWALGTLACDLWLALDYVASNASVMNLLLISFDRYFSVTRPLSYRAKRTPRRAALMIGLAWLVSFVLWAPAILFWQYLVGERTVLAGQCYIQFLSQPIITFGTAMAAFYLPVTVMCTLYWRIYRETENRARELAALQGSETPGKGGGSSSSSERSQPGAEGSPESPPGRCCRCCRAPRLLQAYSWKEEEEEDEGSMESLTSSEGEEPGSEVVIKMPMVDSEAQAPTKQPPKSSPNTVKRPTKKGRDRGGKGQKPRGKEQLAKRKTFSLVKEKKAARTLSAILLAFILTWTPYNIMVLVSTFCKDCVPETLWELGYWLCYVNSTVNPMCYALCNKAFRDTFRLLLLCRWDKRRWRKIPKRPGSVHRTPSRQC
# tau protein = assay: Tau-1 (unphosphorylated tau) western blot in PC12 cells transfected with M1 mAChR, +Aβ25-35; format: cell-based, rat; details: 100 μM-1 nM; Aβ25-35 20 μM
# Description: Anti-GSK-3 (Santa Cruz Biotechnology) is a phosphorylation-independent monoclonal antibody reactive with both GSK-3α and GSK3β. In the same experiments the status of tau protein phosphorylation was studied using mouse anti Tau-1 monoclonal antibody (Chemicon, CAT number MAB3420), which recognizes an unphosphorylated epitope of tau.
# Wistar rats = assay: Passive avoidance, trihexyphenidyl-induced memory impairment in rats; format: in vivo, rat
# Description: Trihexyphenidyl is a selective M1 muscarinic antagonist that crosses the blood brain barrier and induces memory and learning impairments (Bymaster et al., J Pharmacol Exp. Ther. 267: 16-24, 1993; Roldan et al., Neurosci. Lett. 230: 93-96, 1997; Kimura et al., Brain Res. 834: 6-12, 1999). […] Naive Wistar rats were used in the experiments below. The passive avoidance (PA) task consists of a training (acquisition) phase and a retention phase. In the training procedure each rat was individually placed in the small illuminated compartment and after 60 s. of familiarization/adaptation, the door to the large compartment was opened and the latency to enter was measured (Initial Latency) Immediately following entry into the dark compartment, the door was closed and inescapable foot shock (0.6 mA for 3 s) was delivered through the grid floor. […] After the acquisition trial the rat was returned to its home cage. Retention of the passive avoidance task was measured 24 h later, by again placing the rat in the light compartment and after a 60 s adaptation interval, the door was opened and the latency to re-enter the dark compartment was measured. […] Two separate experiments were conducted. […] In both experiments the rats were divided into 2 groups. One main group was treated with trihexyphenidyl (5 mg/kg, s.c) and the second main group was treated with vehicle (DDW-1 ml/kg, s.c.), 30 min before the shock.
# In a further extension of these studies, retention of the passive avoidance task was measured 72 h later, by again placing the rat in the light compartment and after a 60 s adaptation interval, the door was opened and the latency to re-enter the dark compartment was measured. A cutoff point of 600 s was used for retention latency. […] Rats were divided into 2 groups. One group (N=30) was treated with trihexyphenidyl (5 mg/kg, s.c) and the second group (N=29) was treated with vehicle (DDW-1 ml/kg, s.c.), 30 min before the shock.
compound,measurement,setting,value
"C[C@@H]1SC2(CCN(C)CC2)CN1C(=O)CCc1c[nH]c2ccccc12 (single isomer, unassigned) [AF710B]",Ki,sigma 1 receptors; read-out: sigma 1 receptors KH,0.0014 µM
same,Ki,sigma 1 receptors; read-out: sigma 1 receptors KL,0.248 µM
same,agonistic activity on the M2-M5 mAChR subtypes,M2-M5 mAChR subtypes,did not show detectable agonistic activity
same,"phospho-ERK1/2, compound alone",ERK 1/2 phosphorylation,does not increase
same,fraction of higher affinity binding site,M1 mAChR,29%
same,fraction of lower affinity binding site,M1 mAChR,71%
same,Ki,M1 mAChR; read-out: lower affinity binding site KL,41 µM
same,Tau-1 staining decreased by Aβ25-35,tau protein,restored these effects to control level
same,retention latency,"Wistar rats; 1 μg/kg po, 72 h, cutoff 600 s, trihexyphenidyl+DDW 98.6±28.0, control 568.7±23.7",276.3 ± 60.7 s
same,retention latency,"Wistar rats; 10 μg/kg po, 72 h, cutoff 600 s",272.7 ± 51.6 s
same,retention latency,Wistar rats; AF710B 10 μg/kg with NE-100 1 mg/kg,185.4 ± 44.0 s
same,retention latency,"Wistar rats; Experiment 1, 10 μg/kg po, 24 h, cutoff 300 s, trihexyphenidyl+DDW 54.22±14.60, control 242.00±30.60",252.50 ± 32.30 s
same,retention latency,"Wistar rats; Experiment 1, 30 μg/kg po, 24 h, cutoff 300 s",178.82 ± 32.70 s
same,retention latency,"Wistar rats; Experiment 1, 100 μg/kg po, 24 h, not different from trihexyphenidyl+DDW",122.00 ± 34.60 s
same,retention latency,"Wistar rats; Experiment 2, 1 μg/kg po, 24 h, trihexyphenidyl+DDW 63.89±18.79, control 274.70±20.8",215.6 ± 36.00 s
same,retention latency,"Wistar rats; Experiment 2, 3 μg/kg po, 24 h",219.80 ± 36.00 s
same,retention latency,"Wistar rats; NE-100 experiment, AF710B 10 μg/kg, trihexyphenidyl+DDW 122.0±29.2, control 525.7±51.0",361.7 ± 67.1 s
same,cognitive enhancer dose range,"Wistar rats; po, trihexyphenidyl-induced passive avoidance impairment",1 to 30 µg/kg
